PMC12520456, “Regulating Enzyme Activity via Microaggregates Mediated by Phase Separation” (Advanced Science, 2025)
Non-standard residues stand in square brackets, D forms with d. Residues, ends and D or L forms follow the SMILES beside them.

How the values were obtained:
Chymotrypsin = Chymotrypsin activity assay (BTEE); type: biochemical; conditions: Figure 2C
Protocol: and the product's absorbance at […] was dynamically and real-time monitored using a microplate […]
During the chymotrypsin activity assay, DPMD was incorporated into chymotrypsin. The final concentration of chymotrypsin was set at 10 μg/mL, and the final concentration of DPMD was 5 mg/mL. In the corresponding control group, an equal volume of the buffer solution prepared by the kit was added. Subsequently, the enzyme-peptide mixture was added to the reaction system containing the substrate N-Benzoyl-L-Tyrosine Ethyl Ester (BTEE) at a ratio of 1:100 (where the proportion of the enzyme-peptide mixture solution was 1) for the detection of enzyme activity. The reaction was carried out at 25 ℃, and the product's absorbance at 256 nm was dynamically and real-time monitored using a microplate reader. The experimental result was represented by the enzyme reaction's degree of completion. All the tests were repeated three independent times.
NIH-3T3 cells were obtained from the National Collection of Authenticated Cell Cultures. HUVECs were obtained from Procell. All cells were maintained in DMEM media at 37°C with 5% CO₂. […] Cell viability was evaluated by the CCK-8 assay (Dojindo) at 1-, 3-, 5-, and 7-days post-treatment. […] The absorbance at 450 nm was recorded using a microplate reader […]

[1] = Animal fluorescence imaging, tissue distribution and urine; type: in vivo, rat
Protocol: To assess the fate of DPMD in vivo, rats were administered DPMD intraperitoneally and monitored using in vivo fluorescence imaging.
Figure S14. (A) The cell viability test of NIH-3T3 or HUVEC cells co-cultured with different concentrations DPMD.
(B) The apoptosis evaluation of NIH-3T3 or HUVEC co-cultured with DPMD, DPMD & Trypsin, DPMD & Chymotrypsin by flow cytometry. (C) Tissue distribution and quantification of DPMD in […] organs measured by IVIS (n=3/point). The fluorescence signal from the organs after DPMD intraperitoneal injection (1 ml, 0.5%) at 1h, 2-day, 3-day, 4-day, 5-day, 6-day, 7-day. (D) The evaluation of distribution DMPD in urine.
(1 picture or pasted object on this page, not shown here) […]
was performed using an Annexin V-Alexa Fluor 647/PI kit (Solarbio) according to the manufacturer’ s protocol. Briefly, adherent cells were detached with 0.25% EDTA-free trypsin, combined with floating cells from the supernatant. The pellet was washed twice with cold PBS and resuspended in 100 μL of 1× binding buffer. […] Samples were analyzed within 1h on a Sony MA900 flow cytometer.
3.12 Animal fluorescence imaging
Rats were intraperitoneally injected with 1 mL of rhodamine-labeled 0.5% (w/v) DPMD. […] The fluorescence emission intensity of the organs was measured using IVIS Spectrum system (PerkinElmer). […]

SMILES: CC[C@@H](C)[C@@H](NC(=O)[C@@H](CCC(N)=O)NC(=O)[C@H](NC(=O)[C@@H](Cc1ccc(O)cc1)NC(=O)CNC(=O)[C@@H](CC(C)C)NC(=O)[C@H](NC(=O)[C@@H](CO)NC(=O)CNC(=O)[C@@H](C)NC(=O)[C@@H](CC(=O)O)NC(=O)[C@@H](C)NC(=O)[C@@H](CCCNC(=N)N)NC(=O)[C@@H](C)NC(=O)[C@@H](CC(=O)O)NC(=O)[C@@H](C)NC(=O)[C@@H](CCCNC(=N)N)NC(=O)[C@@H](C)NC(=O)[C@@H](CC(=O)O)NC(=O)[C@@H](C)NC(=O)[C@@H](CCCNC(=N)N)NC(=O)[C@@H](C)NC(=O)[C@@H](CC(=O)O)NC(=O)[C@@H](C)NC(=O)[C@H](N)CCCNC(=N)N)C(C)C)[C@H](C)CC)C(=O)N[C@H](CCCNC(=N)N)C(=O)O [DPMD, Ac‐(D‐RADA)4‐CONH2] (H-[dR][dA][dD][dA][dR][dA][dD][dA][dR][dA][dD][dA][dR][dA][dD][dA]G[dS][dV][dL]G[dY][dI][dQ][dI][dR]-OH; N-terminus and C-terminus assumed)
- suppression of enzymatic activity of Chymotrypsin (Chymotrypsin): almost complete extent
- fluorescence intensity in organs (liver, kidneys, spleen) ([1]; 1 mL rhodamine-labeled 0.5% (w/v) DPMD intraperitoneally, IVIS, day 6 post-injection, n=3/point): barely detectable
- fluorescence in urine samples ([1]; labeled DPMD intraperitoneally, Figure S14D): fluorescence appeared in urine samples
